Reference: ChEMBL document CHEMBL1127912, “The contribution to binding of the pyranoside substituents in the excised binding domain of FK-506” (Bioorg Med Chem Lett, 1994)

What follows are compounds tested against Peptidyl-prolyl cis-trans isomerase FKBP1A (Homo sapiens, UniProt P62942) (assay: Ability to displace radiolabeled FK-506 derivative from FK506 binding protein 12).
Chain of Peptidyl-prolyl cis-trans isomerase FKBP1A (P62942 whole entry): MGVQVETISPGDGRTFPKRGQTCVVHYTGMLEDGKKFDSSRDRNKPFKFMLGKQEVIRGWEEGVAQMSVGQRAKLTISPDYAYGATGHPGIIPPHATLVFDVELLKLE

Kd [µM]	Compound
0.01	C=CCCC[C@H](OC(=O)[C@@H]1CCCCN1C(=O)C(=O)[C@]1(O)O[C@H](COC)[C@@H](OC)C[C@H]1C)/C(C)=C/[C@@H]1CC[C@@H](O)[C@H](OC)C1
40	C=CCCC[C@H](OC(=O)[C@@H]1CCCCN1C(=O)C(=O)[C@@]1(O)CC[C@H](OC)[C@@H](COC)O1)/C(C)=C/[C@@H]1CC[C@@H](O)[C@H](OC)C1
29	C=CCCC[C@H](OC(=O)[C@@H]1CCCCN1C(=O)C(=O)[C@@]1(O)CCCCO1)/C(C)=C/[C@@H]1CC[C@@H](O)[C@H](OC)C1
